Measured values reported in publication PMC12120661, “Synthesis and Biological Evaluation of 4‑(4-Nitrophenyl)‑1H‑1,2,3-triazole Derivatives as Antitrypanosomal Agents” (ACS Omega, 2025).

Assays:
[1] = test system: trypomastigotes forms of T. cruzi Tulahuen strain (LacZ); set-up: method as in de Andrade et al., 2015; conditions: previous work of the group; ref de Andrade et al., 2015; read-out: IC50 against trypomastigotes forms of T. cruzi Tulahuen strain (LacZ); cited from earlier work
[2] = previous work of the group; cited from earlier work
[3] = test system: T. cruzi intracellular amastigotes (Colombian strain) in LLC-MK2 cells; experiment: Antiamastigote activity, infection index, treatment after infection, LLC-MK2; assay type: cell-based, Trypanosoma cruzi; conditions: for selective index MK2: CC50/IC50, LLC-MK2, treatment after infection; for IC50: Trypanosoma cruzi, LLC-MK2, 48 h, infected LLC-MK2, 48 h treatment after infection; for selectivity indices: stated in text across LLC-MK2 and C2C12, treatment after infection
Procedure: (§1) Considering the dynamics of T. cruzi infection in humans, characterized by an increase in parasitic load through intracellular replication of amastigote forms in various cell types, we evaluated the action of the compounds in LLC-MK2 (epithelial cells) and C2C12 (myoblasts) using an in vitro infection model.
(§2) The antiamastigote activity was assessed by calculating the infection index, defined as the percentage of infected cells multiplied by the mean number of amastigotes per cell. Noninfected control cells were subjected to identical treatment conditions to evaluate the cytotoxicity of the compounds (CC50). This comprehensive approach allowed for the simultaneous assessment of antiparasitic efficacy and compound-induced cytotoxicity, offering valuable insights into their therapeutic potential.
(§3) In the infection plate each well was added 50 μL of cold methanol for cell fixation. The plate was kept at −20 °C for 1 h. After this period, the wells were blocked with 50 μL of PBS 1X-Saponin 0.1 + 10% rabbit serum for 10 min at room temperature. Following, the wells were washed four times with PBS 1X-Saponin 0.1% and 50 μL of the same solution was added to each well, incubating for 20 min at room temperature. Subsequently, 50 μL of PBS 1X-Saponin 0.1% + anti-T. cruzi antibody (from serum of infected patients) at a 1:10 dilution was added, and the plate was incubated for 1 h at room temperature. The wells were then washed four times with PBS 1X-Saponin 0.1%, and 50 μL of PBS 1X-Saponin 0.1% + antihuman IgG-FITC at a 1:200 dilution was added. The plate was incubated wrapped in aluminum foil for 30 min. After incubation, the plate was washed four times with PBS 1X-Saponin 0.1%, and 50 μL of PBS 1X was added to all wells after the final wash. For nuclear staining, the plate, already stained with FITC, was washed three times with PBS 1X, and 200 μL of PBS 1X + 1 μL of iodide per well was added. After staining, the wells were washed again, and 100 μL of PBS 1X was added before imaging.
(§4) The plate was analyzed in the EVOS fluorescence microscope for image acquisition and fluorescence identification, in which the anti-IgG-FITC stains parasite′s membrane in green and iodide stains nuclei in red. On each condition of treatment, 200 cells of 3 wells were evaluated as to the number of infected cells and the number of parasites per cell for calculating the index of infection the IC50 were calculated by Nonlinear regression curves (log[inhibitor] vs normalized response). Selective index was calculated by dividing CC50 per IC50.

[4] = test system: T. cruzi intracellular amastigotes (Colombian strain) in C2C12 cells; experiment: Antiamastigote activity, infection index, treatment after infection, C2C12; assay type: cell-based, Trypanosoma cruzi; conditions: for selective index C2C12: CC50/IC50, C2C12, treatment after infection; for IC50: Trypanosoma cruzi, infected C2C12, 48 h treatment after infection
Procedure: as §1, §2, §3, §4

[5] = Cellular viability (MTT), noninfected LLC-MK2; assay type: cell-based; conditions: rhesus monkey, noninfected LLC-MK2 epithelial cells; noninfected LLC-MK2, Table 2 (treatment after infection); read-out: CC50 non infected MK2
Procedure: as §2
(§5) Following 24 h of treatment, 10 μL of 5 mg/mL of MTT (3-(4,5-dimethylthiazol-2-yl)-2,5-diphenyltetrazolium bromide) was added per well, and absorbance was evaluated in the Eon Microplate Spectrophotometer Reader (BioTek) at 570–690 nm. CC50 were calculated by Nonlinear regression curves (log[inhibitor] vs normalized response).

LLC-MK2 cells = experiment: Cellular viability (MTT), noninfected LLC-MK2; assay type: cell-based; conditions: noninfected LLC-MK2, Table 3 (treatment previously to infection); read-out: CC50 non infected MK2
Procedure: as §2, §5

[6] = Cellular viability (MTT), noninfected C2C12; assay type: cell-based, murine; conditions: mouse, noninfected C2C12 myoblast cells; noninfected C2C12, Table 2 (treatment after infection); read-out: CC50 non infected C2C12
Procedure: as §2
(§6) The LLC-MK2 (ATCC CCL-7) cell line of epithelial origin, and C2C12 (ATCC CRL-1772) myoblast cells, derived from murine myoblasts, were maintained in Roswell Park Memorial Institute-RPMI 1640 medium supplemented with L-glutamine, 25 mM HEPES (Corning), 10% (v/v) fetal bovine serum (FBS), and gentamicin (1 μL/mL). […] Once the cells reached 80% confluence, were detached using Trypsin-EDTA and prepared in the subsequent experiments.
as §5

C2C12 cells = experiment: Cellular viability (MTT), noninfected C2C12; assay type: cell-based, murine; conditions: noninfected C2C12, Table 3 (treatment previously to infection); read-out: CC50 non infected C2C12
Procedure: as §2, §6, §5

[7] = test system: T. cruzi amastigotes (Colombian strain) in pre-exposed LLC-MK2 cells; experiment: Antiamastigote activity in pretreated (pre-exposed) LLC-MK2 cells; assay type: cell-based, Trypanosoma cruzi; conditions: for selective index MK2: CC50/IC50, LLC-MK2 treated previously to infection; for IC50: Trypanosoma cruzi, LLC-MK2 treated previously to infection
Procedure: (§7) After 24 h, the culture medium was removed and replaced with fresh medium containing cell-derived trypomastigotes (MOI 20:1, Colombian strain) overnight.
as §3, §4

[8] = test system: T. cruzi amastigotes (Colombian strain) in pre-exposed C2C12 cells; experiment: Antiamastigote activity in pretreated (pre-exposed) C2C12 cells; assay type: cell-based, Trypanosoma cruzi; conditions: for selective index C2C12: CC50/IC50, C2C12 treated previously to infection; for IC50: Trypanosoma cruzi, C2C12 treated previously to infection
Procedure: as §7, §3, §4

[9] = target: T1, Recombinant trans-sialidase from T. cruzi (TcTS) (Trypanosoma cruzi, UniProt Q26966); experiment: Continuous fluorimetric TcTS inhibition (MuNANA hydrolysis); assay type: biochemical
T1 construct: A truncated recombinant TcTs, containing the enzyme’s catalytic N-terminal domain, was used; made in house
Procedure: Although the main reaction catalyzed by TcTS involves the transfer of host sialic acids to β-galactose acceptors found in parasite surface mucins, a residual hydrolase activity is also present and was utilized to screen a small library of TcTS inhibitors.
A truncated recombinant TcTs, containing the enzyme’s catalytic N-terminal domain, was used. The production and purification of TcTs were performed following previously described protocols. The continuous fluorimetric TcTS assay was conducted in 96-well plates containing phosphate buffer solution at pH 7.4 (25 μL), recombinant enzyme solution (25 μL) and inhibitor solution (25 μL). […] The enzyme activity was measured by calculating the slope of the curve for each concentration of the test compound. Pyridoxal phosphate was used as the inhibition control at a concentration of 1 mM. The IC50 value was determined using the log(inhibitor) vs normalized response–variable slope model in GraphPad Prism version 10.0.0 for Windows, GraphPad Software, Boston, Massachusetts (www.graphpad.com).

[10] = test system: T. cruzi nitroreductase (TcNTR72); experiment: T. cruzi nitroreductase activity assay (NADH oxidation); conditions: 50 μM NADH, 25 °C; for Kobs (12.5 μM): compound 12.5 μM; for Kobs (25 μM): compound 25 μM; for Kobs (50 μM): compound 50 μM; for Kobs (100 μM): compound 100 μM
Procedure: TcNTR72 was expressed, purified, and its activity was tested following previously described protocol. […] This mixture was incubated at room temperature for 5 min. […] All assays were performed in triplicate for each measurement and for each concentration. Benznidazole was used as a control.

[11] = test system: T. cruzi Tulahuen CL2 β-galactosidase strain; experiment: Antitrypanosomal screening, anti-T. cruzi (trypomastigote) activity, CPRG photometric method; assay type: cell-based; conditions: Trypanosoma cruzi; Tulahuen CL2 β-galactosidase strain on MRC-5SV2; values in parentheses mean ± SEM of two experiments
Procedure: A preliminary assay was conducted to evaluate the analogs’ in vitro cytotoxicity and antitrypanosomatid activity against T. cruzi Tulahuen strain (Table ). […] However, the promising results of analog 16 encouraged us to conduct more in-depth studies on this compound.
Anti-parasitic assays were conducted following established protocols outlined in earlier literature. In brief, for assessing anti-T. cruzi activity, the Tulahuen CL2 β-galactosidase strain (nifurtimox-sensitive) was employed and maintained on MRC-5SV2 (human lung fibroblast). A total of 4 × 10^3 cells were infected with 4 × 10^4 parasites per well. The synthesized analogs were tested at concentrations ranging from 1.56 to 50.00 μM. Parasite burdens were evaluated after the addition of the substrate CPRG (chlorophenol red ß-D-galactopyranoside). The change in color was measured spectrophotometrically at 540 nm after 4 h of incubation at 37°C. In all assays, parasite growth was compared to untreated-infected controls (100% growth) and noninfected controls (0% growth). Results were expressed as the percentage of parasite reduction at different drug concentrations and used to calculate IC50 values from the dose–response curves.

[12] = Preliminary cytotoxicity assay, resazurin; assay type: cell-based; conditions: MRC-5SV2 lung fibroblast cells; human MRC-5 cell line, 3 days incubation
Procedure: MRC-5SV2 cell cytotoxicity was assessed following the methodology outlined in earlier literature. Briefly, cells at a concentration of 1.5 × 10^5 cells/mL were cultured with compound dilutions at 37 °C and 5% CO2. Cell growth was compared to untreated-control wells (100% cell growth) and medium-control wells (0% cell growth). After 3 days of incubation, cell viability was fluorometrically assessed following the addition of 50-μL resazurin per well. Fluorescence was measured after 4 h at 37 °C (λex 550 nm, λem 590 nm). The results were expressed as the percentage reduction in cell growth/viability compared to control wells, and an IC50 value was determined.

[13] = Cytotoxicity against primary mouse macrophages; assay type: cell-based; conditions: mouse, primary mouse macrophages (PMM)
From the text: 1 In Vitro Anti- T. cruzi (Trypomastigote) Activity and Cytotoxicity Assessment of Hit 1 Analogs ^a | column: PMM CC50 (μM)

Solubility observations = conditions: 2.000 to 0.062 mM, 0.5% DMSO

T1 sequence (Q26966 entry or part of it): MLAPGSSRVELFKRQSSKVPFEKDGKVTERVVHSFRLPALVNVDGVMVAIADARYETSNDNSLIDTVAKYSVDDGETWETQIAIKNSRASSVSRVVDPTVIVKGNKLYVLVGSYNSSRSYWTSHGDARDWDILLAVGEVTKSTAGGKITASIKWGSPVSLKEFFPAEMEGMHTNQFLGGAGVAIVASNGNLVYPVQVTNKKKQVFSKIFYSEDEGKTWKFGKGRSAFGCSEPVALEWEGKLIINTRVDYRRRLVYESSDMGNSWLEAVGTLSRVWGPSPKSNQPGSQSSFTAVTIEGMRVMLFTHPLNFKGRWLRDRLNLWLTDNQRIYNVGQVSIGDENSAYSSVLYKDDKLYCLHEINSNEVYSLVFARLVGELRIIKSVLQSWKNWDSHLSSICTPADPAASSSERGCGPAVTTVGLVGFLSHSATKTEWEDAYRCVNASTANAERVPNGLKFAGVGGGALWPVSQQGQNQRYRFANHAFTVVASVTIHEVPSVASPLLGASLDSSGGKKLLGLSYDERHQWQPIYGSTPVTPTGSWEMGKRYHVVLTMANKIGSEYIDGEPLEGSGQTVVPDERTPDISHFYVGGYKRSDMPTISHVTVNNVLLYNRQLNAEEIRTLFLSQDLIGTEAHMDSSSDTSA

Compound	selective index MK2 [3]	IC50 [3] [µM]	selectivity indices [3]	selective index C2C12 [4]	IC50 [4] [µM]	CC50 at 24 h [5] [µM]	CC50 (LLC-MK2 cells) [µM]	CC50 at 24 h [6] [µM]	CC50 (C2C12 cells) [µM]	selective index MK2 [7]	IC50 [7] [µM]	selective index C2C12 [8]	IC50 [8] [µM]	Kobs (12.5 μM) [10] [s^–1]	Kobs (25 μM) [10] [s^–1]	Kobs (50 μM) [10] [s^–1]	Kobs (100 μM) [10] [s^–1]	further results
O=C(Cn1cc(-c2ccc([N+](=O)[O-])cc2)nn1)NCc1ccccc1 [hit 1]																		IC50 [1]: 7 µM; solubility in water [2]: low solubility in water
O=[N+]([O-])c1ccc(-c2cn([C@@H]3O[C@H](CO)[C@H](O)[C@H](O)[C@H]3O)nn2)cc1 [Compound 19, (2R,3R,4S,5R,6R)-2-(Hydroxymethyl)-6-(4-(4-nitrophenyl)-1H-1,2,3-triazol-1-yl)tetrahydro-2H-pyran-3,4,5-triol]	782.8	0.1 ± 0.04	exceeding 400	677.4	0.11 ± 0.02	> 80	> 80	> 80	> 80	39.4	2 ± 0.2	115.6	0.7 ± 0.3	0.03 ± 0.01	0.03 ± 0.01	0.04 ± 0.02	0.04 ± 0.01	IC50 [9]: 1100 ± 100 µM
CC(=O)OC[C@H]1O[C@@H](n2cc(-c3ccc([N+](=O)[O-])cc3)nn2)[C@H](OC(C)=O)[C@@H](OC(C)=O)[C@H]1OC(C)=O [Compound 16, (2R,3S,4S,5R,6R)-2-(Acetoxymethyl)-6-(4-(4-nitrophenyl)-1H-1,2,3-triazol-1-yl)tetrahydro-2H-pyran-3,4,5-triyl Triacetate]	484.3	0.16 ± 0.02	exceeding 400	621.1	0.13 ± 0.01	> 80	> 80	> 80	> 80	124.9	0.6 ± 0.2	141.5	0.56 ± 0.09	0.02 ± 0.02	0.06 ± 0.01	0.07 ± 0.01	0.07 ± 0.01	IC50 [11]: 6 µM; CC50 at 3 days [12]: > 50 µM; CC50 [13]: > 50 µM; solubility in the TcTS assay medium (Solubility observations): low solubility in the medium
